# Measurements as given in US20130052154A1, “Compositions and Methods for the Treatment of Lung Inflammation” (BOARD OF REGENTS OF THE UNIVERSITY OF NEBRASKA, priority 2011, published 2013).
# Key:
# Format in all cases: biochemical
# [1] = target: T1, catalase (from bovine liver), cleavable DTSSP cross-linked cl-nanozyme with PEG-pLL50, purified (C2p) (Bos taurus, UniProt P00432); assay: Catalytic constants of purified DTSSP cross-linked catalase cl-nanozyme (C2p) from effect of H2O2 concentration on rate of H2O2 decomposition
# T1 construct: purchased Calbiochem (Gibbstown, N.J.); host or cells: bovine liver
# T1 sequence (P00432 2-527 limits assumed): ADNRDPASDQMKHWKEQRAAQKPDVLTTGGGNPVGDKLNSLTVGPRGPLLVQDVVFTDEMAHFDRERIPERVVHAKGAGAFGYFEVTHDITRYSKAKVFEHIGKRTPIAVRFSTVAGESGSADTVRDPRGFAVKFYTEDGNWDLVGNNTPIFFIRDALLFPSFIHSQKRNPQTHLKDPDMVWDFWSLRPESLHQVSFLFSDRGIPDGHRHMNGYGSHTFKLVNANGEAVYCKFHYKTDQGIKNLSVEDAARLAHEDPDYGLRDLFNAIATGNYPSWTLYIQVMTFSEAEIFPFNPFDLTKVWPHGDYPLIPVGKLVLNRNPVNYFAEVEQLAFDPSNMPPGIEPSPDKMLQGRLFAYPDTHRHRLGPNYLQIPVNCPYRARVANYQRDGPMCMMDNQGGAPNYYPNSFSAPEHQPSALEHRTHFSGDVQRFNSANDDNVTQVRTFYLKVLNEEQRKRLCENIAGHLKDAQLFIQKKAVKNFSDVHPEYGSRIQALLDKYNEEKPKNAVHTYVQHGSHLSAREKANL
# Protocol: (§1) SOD1 (from bovine erythrocytes), hydrogen peroxide (H2O2), 2,3,5-triphenyltetrazolium chloride (TTC) and copper standards for Inductively Coupled Plasma Mass Spectroscopy (ICP-MS)— TraceCERT®, 1000 mg/L Cu in nitric acid) were from Sigma-Aldrich (St. Louis, Mo.). Catalase (from bovine liver) was from Calbiochem (Gibbstown, N.J.). PEG-pLL50 was from Alamanda Polymers™ (Huntsville, Ala.). […] Cross-linkers 3,3′-dithiobis(sulfosuccinimidylpropionate) (DTSSP) and bis(sulfosuccinimidyl)suberate (BS^3) were from Thermo Fisher Scientific (Rockford, Ill.). NAP™ desalting columns and HiPrep 16/60 Sephacryl S-400 HR column were from GE Healthcare (Piscataway, N.J.). Criterion Tris-HCl gels and Precision Plus Protein™ All Blue Standards were from Bio-Rad (Hercules, Calif.). SYPRO® Ruby protein gel stain and cell culture reagents were purchased from Invitrogen (Carlsbad, Calif.). CellTiter 96® AQueous One Solution Cell Proliferation Assay (MTS) was from Promega (Madison, Wis.). LumiMax Superoxide Anion Detection Kit was from Agilent Technologies, Inc. (Santa Clara, Calif.). All other reagents and supplies were from Fisher Scientific (Pittsburgh, Pa.) unless noted otherwise.
# Enzyme and polymer stock solutions were prepared in 10 mM HEPES (pH 7.4) and 10 mM HEPES-buffered saline (HBS; pH 7.4) for SOD1 and catalase, respectively. Non-cross-linked BICs (Z+/−=2) were prepared as described (Klyachko et al. (2012) Nanomed. Nanotechnol. Biol. Med., 8:119-129). Targeted degree of cross-linking was defined as the molar ratio between cross-linker (DTSSP/BS^3) and pLL amines Precalculated amount of the respective cross-linker was dissolved in the reaction buffer (HEPES/HBS), quickly added to BICs, and the reaction mixture was briefly vortexed and incubated for 2 hours on ice. Unreacted crosslinker was desalted using NAP™ columns following manufacturer's instructions. Cl-Nanozymes were purified using size exclusion chromatography (SEC) (small/intermediate scale) or centrifugal filtration (large scale). SEC was carried out using an ÄKTA™ Fast Protein Liquid Chromatography (FPLC) (Amersham Biosciences, Piscataway, N.J.) system. DTSSP cl-nanozymes were lyophilized overnight, reconstituted in deionized water (DW), loaded onto a HiPrep 16/60 Sephacryl™ S-400 HR column and eluted using 10 mM HBS (pH 7.4) at a flow rate of 0.5 mL/minute. Prior to each experiment, the column was pre-conditioned with free block copolymer (PEG-pLL50) to minimize non-specific adsorption of the cl-nanozymes (Boeckle et al. (2004) J. Gene Med., 6:1102-1111). […] Protein concentration was determined using Micro BCA™ Protein Assay Kit. […]
# [2] = target: T2, catalase (from bovine liver), cleavable DTSSP cross-linked cl-nanozyme with PEG-pLL50, non-purified (C2) (Bos taurus, UniProt P00432); assay: Catalytic constants of DTSSP cross-linked catalase cl-nanozyme (C2) from effect of H2O2 concentration on rate of H2O2 decomposition
# T2 construct: purchased Calbiochem (Gibbstown, N.J.); host or cells: bovine liver
# T2 sequence (P00432 2-527 limits assumed): T1 sequence (P00432 2-527 limits assumed)
# Protocol: as §1
# Enzyme and polymer stock solutions were prepared in 10 mM HEPES (pH 7.4) and 10 mM HEPES-buffered saline (HBS; pH 7.4) for SOD1 and catalase, respectively. Non-cross-linked BICs (Z+/−=2) were prepared as described (Klyachko et al. (2012) Nanomed. Nanotechnol. Biol. Med., 8:119-129). Targeted degree of cross-linking was defined as the molar ratio between cross-linker (DTSSP/BS^3) and pLL amines Precalculated amount of the respective cross-linker was dissolved in the reaction buffer (HEPES/HBS), quickly added to BICs, and the reaction mixture was briefly vortexed and incubated for 2 hours on ice. Unreacted crosslinker was desalted using NAP™ columns following manufacturer's instructions. Cl-Nanozymes were purified using size exclusion chromatography (SEC) (small/intermediate scale) or centrifugal filtration (large scale). […] Protein concentration was determined using Micro BCA™ Protein Assay Kit. […]
# [3] = target: T3, catalase (from bovine liver), native (nC) (Bos taurus, UniProt P00432); assay: Catalytic constants of native catalase (nC) from effect of H2O2 concentration on rate of H2O2 decomposition; settings: H2O2 0 to 65 mM, catalase 2 μg/mL, 50 mM phosphate buffer pH 7.4, 240 nm, Lineweaver-Burk
# T3 construct: purchased Calbiochem (Gibbstown, N.J.); host or cells: bovine liver
# T3 sequence (P00432 2-527 limits assumed): T1 sequence (P00432 2-527 limits assumed)
# Protocol: as §1
# [4] = H2O2 0 to 65 mM, catalase 2 μg/mL, 50 mM phosphate buffer pH 7.4, 240 nm, Lineweaver-Burk, purified cl-nanozyme C2p
# [5] = H2O2 0 to 65 mM, catalase 2 μg/mL, 50 mM phosphate buffer pH 7.4, 240 nm, Lineweaver-Burk, non-purified cl-nanozyme C2
smiles,measurement,setting,value
"OO [H2O2, hydrogen peroxide]",kcat/Km lower than nC,[1]; C2p compared to native catalase (nC),ca. 48%
same,kcat/Km lower than C2,[1]; C2p compared to non-purified cl-nanozyme (C2),~53%
same,Km,[1]; [4],93.2 mM
same,kcat,[1]; [4],722000 s⁻¹
same,increase in Km value,[2]; C2 compared to native catalase (nC),ca. 1.8 fold
same,Km,[2]; [5],94.1 mM
same,kcat,[2]; [5],1.56e+06 s⁻¹
same,Km,[3],53.2 mM
same,kcat,[3],798000 s⁻¹
